Reference: ChEMBL document CHEMBL3784914, “Bioactive lignan constituents from the twigs of Sambucus williamsii” (Bioorg Med Chem Lett, 2016)

Key:
[1] = Cytotoxicity in rat C6 cells assessed as cell viability at 20 uM after 24 hrs by MTT assay; format: cell-based; details: read-out: Activity
XF498 = experiment: Cytotoxicity against human XF498 cells by SRB assay; format: functional, cell-based
[2] = Anti-neuroinflammatory activity in LPS-activated mouse BV2 cells assessed as inhibition of NO production after 24 hrs by Griess assay; format: functional, cell-based; details: BV-2, 24 h
[3] = Cytotoxicity against mouse BV2 cells assessed as cell viability at 20 uM by MTT assay; format: cell-based, BV-2; details: read-out: Activity
C6 = experiment: Neuroprotective activity in rat C6 cells assessed as NGF secretion at 20 uM after 24 hrs by ELISA; format: functional
[4] = Cytotoxicity against human SKOV3 cells by SRB assay; format: functional, cell-based; details: SK-OV-3
A549 = experiment: Cytotoxicity against human A549 cells by SRB assay; format: functional, cell-based
SK-MEL-2 = experiment: Cytotoxicity against human SK-MEL-2 cells by SRB assay; format: functional, cell-based

IC50 [2] [µM]	Compound	viability at 24 h, 20 µM [1] [%]	IC50 (XF498) [µM]	viability at 20 µM [3] [%]	Activity (C6) [%]	IC50 [4] [µM]	IC50 (A549) [µM]	IC50 (SK-MEL-2) [µM]
> 500	COc1cc(C[C@@H]2CO[C@H](c3ccc(O)c(OC)c3)[C@]2(O)CO)ccc1O	106	> 30	128	107.97	> 30	> 30	> 30
20.8	CNC(=N)NCCC[C@H](N)C(=O)O [TILARGININE]	–	–	102	–	–	–	–
40	COc1cc([C@@H]2Oc3c(OC)cc(CCCO)cc3[C@H]2CO)ccc1O [DIHYDRODEHYDRODICONIFERYL ALCOHOL]	105	> 30	129	97.14	> 30	> 30	> 30
72.6	COc1cc(C[C@H]2CO[C@H](c3ccc(O)c(OC)c3)[C@H]2CO)ccc1O [LARICIRESINOL]	101	> 30	147	77.31	> 30	> 30	> 30
7.04	COc1cc(/C=C/C(=O)OCCCc2cc(OC)c3c(c2)[C@@H](CO)[C@H](c2cc(OC)c(O[C@H](CO)[C@H](O)c4ccc(O)c(OC)c4)c(OC)c2)O3)ccc1O	82.7	18.4	146	153.99	17.5	16.4	14.1
34.2	COc1cc([C@@H]2OC[C@@H]3[C@H]2CO[C@H]3c2ccc(O)c(OC)c2)ccc1O [(+)-PINORESINOL]	105	> 30	148	106.93	> 30	> 30	> 30
215	COc1cc(C[C@H]2CO[C@H](c3ccc(O)c(OC)c3)[C@@]2(O)CO)ccc1O	103	> 30	151	107.88	> 30	> 30	> 30
14.7	COc1cc(/C=C\C(=O)OCCCc2cc(OC)c3c(c2)[C@@H](CO)[C@H](c2cc(OC)c(O[C@H](CO)[C@H](O)c4ccc(O)c(OC)c4)c(OC)c2)O3)ccc1O	97	19.6	138	155.96	17.6	15.8	11.4
–	CCCCC/C=C/C(=O)CCc1ccc(O)c(OC)c1 [SHOGAOL]	105	–	–	151.75	–	–	–
129	COc1cc(C(O)[C@H]2CO[C@H](c3ccc(O)c(OC)c3)[C@H]2CO)ccc1O (stereo not given in full)	104	> 30	114	101.55	> 30	> 30	> 30
6.82	COc1cc(/C=C/C(=O)OCCCc2cc(OC)c3c(c2)[C@@H](CO)[C@H](c2cc(OC)c(O[C@@H](CO)[C@H](O)c4ccc(O)c(OC)c4)c(OC)c2)O3)ccc1O	92.3	18.1	157	183.95	15.7	13.2	11.1
45.6	COc1cc([C@H]2OC[C@H]3[C@@H]2CO[C@@H]3c2cc(OC)c(O)c(OC)c2)ccc1O	103	> 30	127	96.39	> 30	> 30	> 30
–	COc1cc([C@@H]2c3cc4c(cc3[C@@H](O[C@@H]3O[C@@H]5CO[C@@H](C)O[C@H]5[C@H](O)[C@H]3O)[C@H]3COC(=O)[C@H]23)OCO4)cc(OC)c1O [ETOPOSIDE]	–	–	–	–	0.84	–	–
